Series [1] deals with T1, Rat2 fibroblasts stably transformed with v-Src/Hu Lck fusion gene (Homo sapiens, UniProt P06239, cells depend on it, form not given).
T1 construct: Candidates are e.g. Schmidt-Ruppin A (P00524) or Prague C (P00526); The human Lck catalytic domain stands in place of the v-Src catalytic domain
As to the kind of experiment: Anchorage independent Lck-transformed fibroblast proliferation assay. The class given is cell-based, rat. As to the method: Anchorage Independent Lck-Transformed Fibroblast Proliferation Assay
Rat2 fibroblasts stably transformed with a plasmid containing a CMV promotor controlled v-Src/Hu Lck fusion gene in which the catalytic domain of human Lck was inserted in place of the v-Src catalytic domain in the v-Src gene are used for the measurement of src dependent suspension growth. Ultra-low cluster plates (Costar # 3474) are seeded with 10,000 cells per well on Day 1. Compound is added in serial two-fold dilutions from 10 micromolar to 0.009 micromolar on Day 2 and MTS reagent (Promega) is added on Day 5 (100 microliters of MTS/medium mix+100 microliters of medium already on the cells and the absorbance is measured at 490 nm. The results are analyzed as follows to yield an IC50 for proliferation (micromolar units) as follow: % inhibition=(Abs490 nm sample−blank)/(Abs490 nm no cmpd control−blank)×100%. The results obtained for representative compounds of this invention are listed in Table 2. Multiple entries for a given compound indicate that it was tested multiple times.

For series [2], the system named is Rat2 fibroblasts stably transformed with v-Src/Hu c-Src fusion gene. Kind of series: Anchorage independent Src-transformed fibroblast proliferation assay. The class given is cell-based, rat. As to the method:
Anchorage Independent Src-Transformed Fibroblast Proliferation Assay Rat2 fibroblasts stably transformed with a plasmid containing a CMV promotor controlled v-Src/Hu c-Src fusion gene in which the catalytic domain of human c-Src was inserted in place of the v-Src catalytic domain in the v-Src gene are used for the measurement of src dependent suspension growth. […] Multiple entries for a given compound indicate that it was tested multiple times.

Setting [3] is: Table 3, read-out: Lck Cells IC50.
The mark [4] stands for this setting: Rattus norvegicus, Rat2, Table 3, read-out: Src Cells IC50 μM or % inhib at 10 μM (IC50 values).
[5] abbreviates: Table 3, read-out: Src Cells IC50 μM or % inhib at 10 μM (IC50 values).
The mark [6] stands for this setting: Table 2, suspension growth, MTS readout Day 5, read-out: Lck cells IC50.
[7] abbreviates: Rattus norvegicus, Rat2, 120 h, Table 1, suspension growth, MTS readout Day 5, read-out: Src cells IC50.
Setting [8] is: Table 1, suspension growth, MTS readout Day 5, read-out: Src cells IC50.

Molecules are shown by their SMILES. Where “and” joins values, the source holds several entries; their conditions need not be identical. Equal values may be shown once. Read-outs that look alike come from different tables or passages of the source.

These results are taken from patent US7276519B2, “Thieno[3,2-b]pyridine-6-carbonitriles and thieno[2,3-b]pyridine-5-carbonitriles as protein kinase inhibitors” (Wyeth, priority 2002, dated 2007).

Usually melting point stands for the temperature of the solid-liquid transition. Usually IC50 stands for the midpoint of a concentration-inhibition curve.

T1 sequence (P06239 whole entry, change not shown, the tested form may be a part): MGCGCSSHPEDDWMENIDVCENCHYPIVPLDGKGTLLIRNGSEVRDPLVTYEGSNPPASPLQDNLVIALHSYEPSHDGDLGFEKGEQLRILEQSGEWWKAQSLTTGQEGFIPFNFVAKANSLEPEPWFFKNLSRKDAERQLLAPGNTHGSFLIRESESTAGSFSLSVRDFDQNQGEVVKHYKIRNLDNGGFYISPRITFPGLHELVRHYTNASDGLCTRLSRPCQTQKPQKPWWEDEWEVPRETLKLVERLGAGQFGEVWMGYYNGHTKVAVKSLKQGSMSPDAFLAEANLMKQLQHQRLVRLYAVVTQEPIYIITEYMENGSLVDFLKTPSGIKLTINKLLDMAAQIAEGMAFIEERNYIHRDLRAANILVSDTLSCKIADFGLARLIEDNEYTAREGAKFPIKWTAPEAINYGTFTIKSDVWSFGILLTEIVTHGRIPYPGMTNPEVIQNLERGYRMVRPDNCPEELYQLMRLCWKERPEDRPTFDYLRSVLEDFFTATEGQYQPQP

In turn, `COc1cc(Nc2c(C#N)cnc3cc(/C=C/n4nccn4)sc23)c(Cl)cc1Cl` [Example 66, 7-[(2,4-Dichloro-5-methoxyphenyl)amino]-2-[(E)-2-(2H-1,2,3-triazol-2-yl)vinyl]thieno[3,2-b]pyridine-6-carbonitrile] yielded a melting point of 315 to 316 °C. Moreover, the GI50 in series [1] (setting [3]) was over 10000 nM. Also, in series [2] (Rattus norvegicus, Rat2, Table 3, at 10 μM, read-out: Src Cells IC50 μM or % inhib at 10 μM (% values)), the inhibition at 10 µM came to 26%. Besides, the “Src Cells IC50 μM or % inhib at 10 μM (% values)” value in series [2] (Table 3, at 10 μM) is 26%, 26%.

Compound `COc1cc(Nc2c(C#N)cnc3cc(-c4ccc(CN5CCN(c6ccccn6)CC5)cc4)sc23)c(Cl)cc1Cl` [Example 112, 7-[(2,4-dichloro-5-methoxyphenyl)amino]-2-{4-[(4-pyridin-2-ylpiperazin-1-yl)methyl]phenyl}thieno[3,2-b]pyridine-6-carbonitrile] showed a melting point of 245 to 247 °C. For the same compound, the GI50 in series [1] (setting [3]) was over 10000 nM. For the same compound, in series [2] (setting [4]), the IC50 is over 10 µM. In addition, the IC50 in series [2] (setting [5]) worked out at 5.78 µM.

Compound `COc1cc(Nc2c(C#N)cnc3cc(-c4ccc(CN(C)C)cc4)sc23)cc(OC)c1OC` [Example 61, 2-{4-[(Dimethylamino)methyl]phenyl}-7-[(3,4,5-trimethoxyphenyl)amino]thieno[3,2-b]pyridine-6-carbonitrile] returned a melting point of 199 to 201 °C. Also, the GI50 in series [1] (setting [6]) was 17 nM and 15 nM and 14 nM. Also, in series [2] (setting [7]), the IC50 amounted to 0.217 µM. Further, in series [2] (setting [8]), the IC50 worked out at 0.279 µM.

With `CCN(CC)Cc1ccc(-c2cc3ncc(C#N)c(Nc4cc(OC)c(Cl)cc4Cl)c3s2)nc1` [Example 133, 7-[(2,4-dichloro-5-methoxyphenyl)amino]-2-{5-[(diethylamino)methyl]pyridin-2-yl}thieno[3,2-b]pyridine-6-carbonitrile], the melting point was in the range of 192 to 193 °C. The GI50 in series [1] (setting [3]) was 82 nM and 97 nM. Further, the IC50 in series [2] (setting [4]) stood at 0.436 µM. Also, the IC50 in series [2] (setting [5]) amounted to 0.289 µM.

Compound `COc1cc(Nc2c(C#N)cnc3cc(-c4ccc(CN5CCN(CCO)CC5)cc4)sc23)c(Cl)cc1Cl` [Example 17, 7-[(2,4-Dichloro-5-methoxyphenyl)amino]-2-(4-{[4-(2-hydroxyethyl)piperazin-1-yl]methyl}phenyl)thieno[3,2-b]pyridine-6-carbonitrile] showed a melting point of 189 to 190 °C. Further, the GI50 in series [1] (setting [6]) is 140 nM. Further, the IC50 in series [2] (setting [7]) turned out to be 0.37 µM.

`COc1cc(Nc2c(C#N)cnc3c(-c4ccc(C=O)cc4)csc23)c(Cl)cc1Cl` [Example 140, 7-[(2,4-Dichloro-5-methoxyphenyl)amino]-3-(4-formylphenyl)thieno[3,2-b]pyridine-6-carbonitrile]: the melting point is 268 °C (dec.). In addition, in series [1] (setting [3]), the GI50 was over 10000 nM. In addition, the IC50 in series [2] (setting [4]) was found to be 8.46 µM. Also, the IC50 in series [2] (setting [5]) is 8.58 µM.

Compound `COc1cc(Nc2c(C#N)cnc3cc(-c4ccc(CN5CCN(C)CC5)cc4)sc23)cc(OC)c1OC` [Example 58, 2-{4-[(4-Methylpiperazin-1-yl)methyl]phenyl}-7-[(3,4,5-trimethoxyphenyl)amino]thieno[3,2-b]pyridine-6-carbonitrile] yielded a melting point of 189 to 191 °C. Further, the GI50 in series [1] (setting [6]) is 48 nM. Also, the IC50 in series [2] (setting [7]) was 0.165 µM. In series [2] (setting [8]), the 50% inhibitory concentration (IC50) was determined as 0.245 µM.

In turn, `COc1cc(Nc2c(C#N)cnc3cc(Br)sc23)c(Cl)cc1Cl` [Example 3, 2-Bromo-7-[(2,4-dichloro-5-methoxyphenyl)amino]-thieno[3,2-b]pyridine-6-carbonitrile] had a melting point of 228 to 229 °C. For the same compound, the GI50 in series [1] (setting [6]) worked out at 32000 nM. In addition, the IC50 in series [2] (setting [7]) is 37 µM.

`COc1cc(Nc2c(C#N)cnc3cc(C#Cc4cccc(CN(C)C)n4)sc23)c(Cl)cc1Cl` [Example 87, 7-[(2,4-dichloro-5-methoxyphenyl)amino]-2-({6-[(dimethylamino)methyl]pyridin-2-yl}ethynyl)thieno[3,2-b]pyridine-6-carbonitrile]: the melting point fell in the range of 190 to 191 °C. In series [1] (setting [3]), the GI50 is 1000 nM and 1850 nM.

`COc1cc(Nc2c(C#N)cnc3cc(C#Cc4ccc(CN(C)C)cn4)sc23)c(Cl)cc1Cl` [Example 100, 7-[(2,4-dichloro-5-methoxyphenyl)amino]-2-({5-[(dimethylamino)methyl]pyridin-2-yl}ethynyl)thieno[3,2-b]pyridine-6-carbonitrile] showed a melting point of 215 to 217 °C. The GI50 in series [1] (setting [3]) was 3340 nM and 1930 nM. For the same compound, the IC50 in series [2] (setting [4]) is over 10 µM.

Consider `COc1cc(Nc2c(C#N)cnc3cc(-c4ccc(CN(C)C)s4)sc23)c(Cl)cc1Cl` [Example 88, 7-[(2,4-dichloro-5-methoxyphenyl)amino]-2-{5-[(dimethylamino)methyl]thien-2-yl}thieno[3,2-b]pyridine-6-carbonitrile], for which the melting point lay in the range of 210 to 212 °C. Also, the GI50 in series [1] (setting [3]) was 160 nM and 250 nM. Besides, the IC50 in series [2] (setting [4]) came out at 2.4 µM. Moreover, the IC50 in series [2] (setting [5]) turned out to be 2.3 µM.

In turn, `CN1CCN(Cc2ccc(-c3cc4ncc(C#N)c(Nc5ccc(Cl)cc5Cl)c4s3)cc2)CC1` [Example 119, 7-[(2,4-dichlorophenyl)amino]-2-{4-[(4-methylpiperazin-1-yl)methyl]phenyl}thieno[3,2-b]pyridine-6-carbonitrile] returned a melting point of 245 to 247 °C. Moreover, in series [1] (setting [3]), the GI50 is 1220 nM and 1340 nM.

As to `COc1cc(Nc2c(C#N)cnc3cc(-c4ccc(CN5CCOCC5)cc4)sc23)c(Cl)cc1Cl` [Example 15, 7-[(2,4-Dichloro-5-methoxyphenyl)amino]-2-[4-(4-morpholinylmethyl)phenyl]thieno[3,2-b]pyridine-6-carbonitrile], the melting point fell in the range of 244 to 245 °C. In series [1] (setting [6]), the GI50 amounted to 350 nM.

The compound `COc1cc(Nc2c(C#N)cnc3cc(-c4ccc(N5CCOCC5)nc4)sc23)c(Cl)cc1Cl` [Example 109, 7-[(2,4-dichloro-5-methoxyphenyl)amino]-2-(6-morpholin-4-ylpyridin-3-yl)thieno[3,2-b]pyridine-6-carbonitrile] came in with a melting point of 225 to 227 °C. In addition, the GI50 in series [1] (setting [3]) was 4500 nM. Besides, the IC50 in series [2] (setting [4]) was over 10 µM.

`COc1cc(Nc2c(C#N)cnc3cc(-c4ccc(CN(C)C)o4)sc23)c(Cl)cc1Cl` [Example 76, 7-[(2,4-dichloro-5-methoxyphenyl)amino]-2-{5-[(dimethylamino)methyl]-2-furyl}thieno[3,2-b]pyridine-6-carbonitrile] registered a melting point of 200 to 202 °C. Further, in series [1] (setting [3]), the GI50 is 910 nM and 990 nM. Besides, the IC50 in series [2] (setting [4]) turned out to be 4.9 µM. Moreover, in series [2] (setting [5]), the IC50 is 2.6 µM.

Consider `COc1cc(Nc2c(C#N)cnc3cc(-c4coc(CN5CCN(C)CC5)c4)sc23)c(Cl)cc1Cl` [Example 137, 7-[(2,4-dichloro-5-methoxyphenyl)amino]-2-{5-[(4-methylpiperazin-1-yl)methyl]-3-furyl}thieno[3,2-b]pyridine-6-carbonitrile], for which the melting point is 189 to 192 °C. The GI50 in series [1] (setting [3]) is 67 nM and 53 nM. For the same compound, in series [2] (setting [4]), the IC50 is 0.303 µM. Besides, the IC50 in series [2] (setting [5]) worked out at 0.211 µM.

Turning to `COc1cc(Nc2c(C#N)cnc3cc(-c4cnc(CN5CCN(C)CC5)n4C)sc23)c(Cl)cc1Cl` [Example 59, 7-[(2,4-Dichloro-5-methoxyphenyl)amino]-2-{1-methyl-2-[(4-methylpiperazin-1-yl)methyl]-1H-imidazol-5-yl}thieno[3,2-b]pyridine-6-carbonitrile], the melting point lay in the range of 234 to 235 °C. Moreover, the GI50 in series [1] (setting [6]) is 270 nM and 320 nM. In addition, the IC50 in series [2] (setting [7]) came out at 1.21 µM. For the same compound, the IC50 in series [2] (setting [8]) was 2.29 µM.

`COc1cc(Nc2c(C#N)cnc3cc(-c4ccc(CN5CCN(C)CC5)o4)sc23)c(Cl)cc1Cl` [Example 69, 7-[(2,4-dichloro-5-methoxyphenyl)amino]-2-{5-[(4-methylpiperazin-1-yl)methyl]-2-furyl}thieno[3,2-b]pyridine-6-carbonitrile] came in with a melting point of 215 to 217 °C. Further, the GI50 in series [1] (setting [3]) is 1900 nM and 2200 nM. Further, the IC50 in series [2] (setting [4]) is 2.8 µM. In addition, in series [2] (setting [5]), the IC50 was determined as 3.4 µM.

In the case of `COc1cc(Nc2c(C#N)cnc3cc(-c4ccc(CN5CCN(C)CC5)s4)sc23)c(Cl)cc1Cl` [Example 81, 7-[(2,4-dichloro-5-methoxyphenyl)amino]-2-{5-[(4-methylpiperazin-1-yl)methyl]thien-2-yl}thieno[3,2-b]pyridine-6-carbonitrile], the melting point was in the range of 200 to 202 °C. In series [1] (setting [3]), the GI50 is 180 nM and 220 nM.

`COc1cc(Nc2c(C#N)cnc3cc(-c4ccc(CN5CCN(c6ccccc6)CC5)cc4)sc23)c(Cl)cc1Cl` [Example 113, 7-[(2,4-dichloro-5-methoxyphenyl)amino]-2-{4-[(4-phenylpiperazin-1-yl)methyl]phenyl}thieno[3,2-b]pyridine-6-carbonitrile] gave a melting point of 238 to 240 °C. The GI50 in series [1] (setting [3]) is over 10000 nM.
